Results from patent US4094984A, “6-Phenyl-8-bromo-4H-s-triazolo-[3,4C]-thieno-[2,3E]-1,4-diazepines and salts thereof” (Boehringer Ingelheim GmbH, priority 1974, dated 1978).

Key:
[1] = tested on: warm-blooded animals, such as mice and rats; test: Standard pharmacodynamic test methods (pentetrazole antagonism, electroshock, conflicting situation, fighting test); type: in vivo; details: in words
Description: The above-indicated pharmacodynamic properties of the compounds of this invention were ascertained by means of various standard test methods, namely the following:
(§1) 1. Pentetrazole antagonisim [M. I. Gluckmann, Curr. Ther. Res. 7, 721 (1965)]. The median effective dose (ED50) of the test compound is determined which cancels the lethal effect of 125 mgm/kg of pentylenetetrazole in 50% of the test animals; the pentylenetetrazole is administered intraperitoneally one hour after administration of the test compound.
2. Electroshock [J. E. P. Tomann et al, J. Neuro-Physiol. 9, 231 (1946)].
3. Conflicting Situation (Inhibition of Passive Avoidance Test) [J. Geller, Arch. Int. Pharmacodyn. 149,243 (1964)].
4. Fighting Test (Suppression of isolation-induced aggressiveness in mice) [Wirth et al; Arch. Int. Pharmcodyn. 115, 1-31 (1958)].
(§2) Albino mice (NMRI) having a body weight of 20 to 25 gm or albino rats (FW-49) having a body weight of 140 to 200 gm were used as the test animals, and the test compounds were administered perorally as a suspension in olive oil by means of an esophageal sound.

[2] = tested on: lethal effect of 125 mgm/kg of pentylenetetrazole; test: Pentetrazole antagonism test (anticonvulsive activity); type: in vivo, Mouse; albino mice (NMRI); details: po, 1 h; mouse; p.o.; 125 mgm/kg pentylenetetrazole i.p. one hour after test compound; values graphically determined
Description: as §1, §2

[3] = Toxicity, median lethal dose (Litchfield and Wilcoxon); set-up: species or system Mouse; albino mice (NMRI); details: in vivo, po, mouse; for selectivity ratio: p.o., LD50 over pentylenetetrazole antagonism ED50, read-out: Therap. Index LD50:ED50
Description: 5. Toxicity [Litchfield and Wilcoxon, J. Pharmacol. Exp. Therap. 96, 99(1949)]. Determination of median lethal dose (LD50).
as §2

Structure (SMILES) | effectiveness among the compounds of formula I [1] | ED50 [2] [mg/kg] | LD50 [3] [mg/kg] | selectivity ratio [3]
Cc1nnc2n1-c1sc(Br)cc1C(c1ccccc1Cl)=NC2 [A, 8-bromo-6-(o-chlorophenyl)-1-methyl-4H-s-triazolo [3,4c]thieno[2,3e]1,4-diazepine] | particularly effective | 0.07 | > 3500 | > 50000
Cc1nnc2n1-c1sc(Br)cc1C(c1ccccc1F)=NC2 [B, 8-bromo-6-(o-fluorophenyl)-1-methyl-4H-s-triazolo[3,4c]thieno[2,3e]1,4-diazepine] |  | 0.15 | > 3300 | > 22000
Cc1nnc2n1-c1sc(Br)cc1C(c1ccccc1Br)=NC2 [C, 8-bromo-6-(o-bromophenyl)-1-methyl-4H-s-triazolo[3,4c]thieno[2,33]1,4-diazepine] | particularly effective | 0.12 | > 3500 | > 29200
Cc1nnc2n1-c1sc(Br)cc1C(c1ccccc1)=NC2 [D, 8-bromo-6-phenyl-1-methyl-4H-s-triazolo[3,4]thieno[2,3e]1,4-diazepine] |  | 0.8 |  | 
CCc1cc2c(s1)-n1c(C)nnc1CN=C2c1ccccc1Cl [E, 8-ethyl-6-(o-chlorophenyl)-1-methyl-4H-s-triazolo[3,4c]thieno[2,3e]-1,4-diazepine, reference compound] |  | 0.7 | 3070 | 4390
Cc1nnc2n1-c1sc(Cl)cc1C(c1ccccc1Cl)=NC2 [F, 8-chloro-6-(o-chlorophenyl)-1-methyl-4H-s-triazolo[3,4c]thieno[2,3e]1,4-diazepine, reference compound] |  | 1 | 2300 | 2300
Cc1nnc2n1-c1sc(Cl)cc1C(c1ccccc1Br)=NC2 [G, 8-chloro-6-(o-bromophenyl)-1-methyl-4H-s-triazolo[3,4c]thieno[2,3e]1,4-diazepine, reference compound] |  | 0.7 | 2200 | 3140
Cc1nnc2n1-c1sc(Cl)cc1C(c1ccccc1)=NC2 [H, 8-chloro-6-phenyl-1-methyl-4H-s-triazolo[3,4c]thieno[2,3e]1,4-diazepine, reference compound] |  | 3 |  | 
